Test system: HBV viral load production from HepAD38 cells
Assay: Viral production from HepAD38 cells: viral load in supernatant by qPCR of the HBV core sequence
Format: cell-based
Conditions: 5 days incubation, qPCR of supernatant HBV DNA vs DMSO control, read-out: viral load lowering EC50 (Activity)
Protocol: Assay Measuring Activity of Test Compounds on Viral Production from HepAD38 Cells
HepAD38 cells grown in a T-150 flask (Corning, cat #: 430825) with Growth Medium (DMEM/F12 […] (Hyclone, cat #: SH30023.02), 1× Pen/Strep (Invitrogen, cat #: 15140-122), 10% FBS (Tissue Culture Biologics, cat #: 101), […] G418 (Alfa Aesar, cat #: J62671), 1 μg/mL Tetracycline (Teknova, cat #: T3320)) were detached with 0.25% trypsin-EDTA (Invitrogen, cat #: 25200-056). Tetracycline-free treatment medium (15 mL DMEM/F12 (1:1) 1× Pen/step, with 2% FBS, Tet-system approved (Clontech, cat #: 631106) were then added to mix, transferred into a 50 ml conical tube (Falcon, cat #: 21008-918,) and spun at 1300 rpm for 5 min. Pelleted cells were then re-suspended/washed with 50 mL of 1×DPBS (Invitrogen, cat #: 14190-136) 2 times and 50 mL treatment medium twice. HepAD38 cells were then re-suspended with 10 mL of treatment medium, syringed and counted. Wells of 96-well clear bottom TC plate (Corning, cat #: 3904,) were seeded at 50,000 cells/well in 180 μL of treatment medium, and 20 μL of either 10% DMSO (Sigma, cat #: D4540) as controls or a 10× solution of test compounds in 10% DMSO in treatment media was added for a final compound concentration starting at 10 μM, and plates were incubated in 5% CO2 incubator at 37° C. for 5 days.
Subsequently viral load production was assayed by quantitative PCR (qPCR) of the HBV core sequence. PCR reaction mixture containing forward primers HBV-f 5′-CTGTGCCTTGGGTGGCTIT-3′ (IDT DNA), Reverse primers HBV-r 5′-[…]-3′ (IDT DNA), Fluorescent TaqMan™ Probes HBV-probe 5′-FAM/AGCTCCAAA/ZEN/[…]/3IABkFQ-3′ (IDT DNA), 10 μL/well of PerfeCTa® qPCR ToughMix® (Quanta Biosciences, Cat #: 95114-05K), and 6 μL/well of DEPC water (Alfa Aesar, cat #: J62087) was prepared. Four μL of supernatant was added to 16 μL of the reaction mixture in a qPCR plate (Applied Biosytems, Cat #: 4309849), sealed with a film (Applied Biosystems, Cat #: 4311971), centrifuged for a few seconds, and subsequently run on an Applied Biosystems VIIA7. The PCR mixture was incubated at 45° C. for 5 min, then 95° C. for 10 min, followed by 40 cycles of 10 seconds at 95° C. and 20 seconds at 60° C. Viral load was quantified against known HBV DNA standards by using ViiA™ 7 Software. Viral load in the supernatant from wells with treated cells were compared against viral load in supernatant from DMSO control wells (≥3 per plate). Cell viability assay was performed with CellTiter-Glo Luminescent Cell Viability Assay (Promega, cat #: G7573) with modification. Mixed appropriate amount of CellTiter-Glo (CTG) 1×DPBS in a 1:1 ratio, added 100 uL of the mixture to each well followed completely removal of all supernatant in each well without touching cell surface. Incubated the plate at room temperature for 10 min on an orbital shaker, and then read the plate with a plate reader (TECAN M1000 or Envision). EC50 or CC50 values were calculated through curve-fitting of the four-parameter nonlinear-logistic-regression model (GraphPad Prism or Dotmatics). CC50 values were all >10 μM.

SMILES	EC50 [nM]
CN1C(C(=O)Nc2ccc(F)c(Cl)c2)CC(C(=O)NCc2cn(-c3ccccc3)cn2)NS1(=O)=O (single isomer, unassigned) [1145-ISOMER-B, N3-(3-chloro-4-fluoro-phenyl)-2-methyl-1,1-dioxo-N5-[(1-phenylimidazol-4-yl)methyl]-1,2,6-thiadiazinane-3,5-dicarboxamide]	100 to 10000
CN1C(C(=O)Nc2ccc(F)c(Cl)c2)CC(C(=O)NC2CCCc3nc(-c4ccc(OCCN5CCCCC5)cc4)sc32)NS1(=O)=O (single isomer, unassigned) [Compound 948-ISOMER-B, N3-(3-chloro-4-fluoro-phenyl)-2-methyl-1,1-dioxo-N5-[2-[4-[2-(1-piperidyl)ethoxy]phenyl]-4,5,6,7-tetrahydro-1,3-benzothiazol-7-yl]-1,2,6-thiadiazinane-3,5-dicarboxamide]	100 to 10000
Cc1c(CNC(=O)C2CC(C(=O)Nc3ccc(F)c(Cl)c3)N(C)S(=O)(=O)N2)noc1-c1ccccc1 (single isomer, unassigned) [1150-ISOMER-B, N3-(3-chloro-4-fluoro-phenyl)-2-methyl-N5-[(4-methyl-5-phenyl-isoxazol-3-yl)methyl]-1,1-dioxo-1,2,6-thiadiazinane-3,5-dicarboxamide]	100 to 10000
Cc1csc(CNC(=O)C2CC(C(=O)Nc3ccc(F)c(Cl)c3)N(C)S(=O)(=O)N2)n1 (single isomer, unassigned) [Compound 686-ISOMER-B, N3-(3-chloro-4-fluoro-phenyl)-2-methyl-N5-[(4-methylthiazol-2-yl)methyl]-1,1-dioxo-1,2,6-thiadiazinane-3,5-dicarboxamide]	< 50
Cc1ncc(CNC(=O)C2CC(C(=O)Nc3ccc(F)c(Cl)c3)N(C)S(=O)(=O)N2)s1 (single isomer, unassigned; isomer-a) [Compound 495-ISOMER-A, N3-(3-chloro-4-fluroo-phenyl)-2-methyl-N5-[(2-methylthiazol-5-yl)methyl]-1,1-dioxo-1,2,6-thiadiazinane-3,5-dicarboxamide]	100 to 10000
COc1ccc2nc(CNC(=O)C3CC(C(=O)Nc4ccc(F)c(Cl)c4)N(C)S(=O)(=O)N3)sc2c1 (single isomer, unassigned) [1011-ISOMER-A, N3-(3-Chloro-4-fluoro-phenyl)-N5-[(6-methoxy-1,3-benzothiazol-2-yl)methyl]-2-methyl-1,1-dioxo-1,2,6-thiadiazinane-3,5-dicarboxamide]	100 to 10000
CN1C(C(=O)Nc2ccc(F)c(Cl)c2)CC(C(=O)NC2CCN(c3ccnc(Cl)c3)CC2)NS1(=O)=O (single isomer, unassigned) [1012-ISOMER-B, N3-(3-Chloro-4-fluoro-phenyl)-N5-[1-(2-chloro-4-pyridyl)-4-piperidyl]-2-methyl-1,1-dioxo-1,2,6-thiadiazinane-3,5-dicarboxamide]	50 to 100
Cc1cn(-c2ccccc2F)nc1CNC(=O)C1CC(C(=O)Nc2ccc(F)c(Cl)c2)N(C)S(=O)(=O)N1 (single isomer, unassigned) [1142-ISOMER-B, N3-(3-chloro-4-fluoro-phenyl)-N5-[[1-(2-fluorophenyl)-4-methyl-pyrazol-3-yl]methyl]-2-methyl-1,1-dioxo-1,2,6-thiadiazinane-3,5-dicarboxamide]	100 to 10000

Same assay, conditions: Hepatitis B virus, HePAD38, 120 h, 5 days incubation, qPCR of supernatant HBV DNA vs DMSO control, read-out: viral load lowering EC50 (Activity)

SMILES	EC50 [nM]
CN1C(C(=O)Nc2ccc(F)c(Cl)c2)CC(C(=O)NCc2cnc(C(F)(F)F)s2)NS1(=O)=O (single isomer, unassigned) [Compound 498-ISOMER-A, N3-(3-chloro-4-fluoro-phenyl)-2-methyl-1,1-dioxo-N5-[[2-(trifluoromethyl)thiazol-5-yl]methyl]-1,2,6-thiadiazinane-3,5-dicarboxamide]	100 to 10000
COc1cccc(CNC(=O)C2CC(C(=O)Nc3ccc(F)c(C#N)c3)N(C)S(=O)(=O)N2)c1 (stereo not shown) [Compound 835]	50 to 100
CCN1CCC(Oc2ccc(-c3ncc(CNC(=O)C4CC(C(=O)Nc5ccc(F)c(Cl)c5)N(C)S(=O)(=O)N4)s3)cc2)CC1 (single isomer, unassigned) [Compound 921-ISOMER-A, N3-(3-chloro-4-fluoro-phenyl)-N5-[[2-[4-[(1-ethyl-4-piperidyl)oxy]phenyl]thiazol-5-yl]methyl]-2-methyl-1,1-dioxo-1,2,6-thiadiazinane-3,5-dicarboxamide]	< 50
COCCN1C(C(=O)Nc2ccc(F)c(Cl)c2)CC(C(=O)NC2CCN(C(=O)OC)CC2)NS1(=O)=O (single isomer, unassigned) [Compound 896-ISOMER-A, methyl 4-[[5-[(3-chloro-4-fluoro-phenyl)carbamoyl]-6-(2-methoxyethyl)-1,1-dioxo-1,2,6-thiadiazinane-3-carbonyl]amino]piperidine-1-carboxylate]	50 to 100
CN1C(C(=O)Nc2ccc(F)c(C#N)c2)CC(C(=O)NC2CCN(C(=O)OC(C)(C)C)CC2)NS1(=O)=O (stereo not shown) [Compound 868]	< 50
CN1C(C(=O)Nc2ccc(F)c(Cl)c2)CC(C(=O)N[C@@H](c2ccccc2)c2cnc(Cl)s2)NS1(=O)=O (single isomer, unassigned) [1066-ISOMER-D]	100 to 10000
CN1C(C(=O)Nc2ccc(F)c(Cl)c2)CC(C(=O)NCC2CCCCC2)NS1(=O)=O (stereo not shown) [Compound 1160]	100 to 10000
CN1C(C(=O)Nc2ccc(F)c(Cl)c2)CC(C(=O)NC2CCN(c3ccccn3)CC2)NS1(=O)=O (stereo not shown) [Compound 769]	< 50
CN1C(C(=O)Nc2ccc(F)c(C#N)c2)CC(C(=O)NCc2nc3ccccc3s2)NS1(=O)=O (stereo not shown) [Compound 866]	100 to 10000
CN1C(C(=O)Nc2ccc(F)c(Cl)c2)CC(C(=O)NCc2cnc(-c3ccc(C#CCN4CCCCC4)cc3)s2)NS1(=O)=O (single isomer, unassigned) [Compound 946-ISOMER-A, N3-(3-chloro-4-fluoro-phenyl)-2-methyl-1,1-dioxo-N5-[[2-[4-[3-(1-piperidyl)prop-1-ynyl]phenyl]thiazol-5-yl]methyl]-1,2,6-thiadiazinane-3,5-dicarboxamide]	< 50
Cc1csc(CNC(=O)C2CC(C(=O)Nc3ccc(F)c(Cl)c3)N(C)S(=O)(=O)N2)n1 (single isomer, unassigned) [Compound 686-ISOMER-A, N3-(3-chloro-4-fluoro-phenyl)-2-methyl-N5-[(4-methylthiazol-2-yl)methyl]-1,1-dioxo-1,2,6-thiadiazinane-3,5-dicarboxamide]	100 to 10000
CCc1nc(CNC(=O)C2CC(C(=O)Nc3ccc(F)c(Cl)c3)N(C)S(=O)(=O)N2)cs1 (stereo not shown) [Compound 742]	50 to 100
CCN1C(C(=O)Nc2ccc(F)c(Cl)c2)CC(C(=O)NC2CCN(C(=O)OC)CC2)NS1(=O)=O (stereo not shown) [Compound 890]	< 50
CN1C(C(=O)Nc2ccc(F)c(Cl)c2)CC(C(=O)NCc2cnc(C3CCC(C)(C)C3)s2)NS1(=O)=O (stereo not shown) [Compound 1159]	100 to 10000
COc1ccc2nc(CNC(=O)C3CC(C(=O)Nc4ccc(F)c(Cl)c4)N(C)S(=O)(=O)N3)sc2c1 (single isomer, unassigned) [1011-ISOMER-B, N3-(3-Chloro-4-fluoro-phenyl)-N5-[(6-methoxy-1,3-benzothiazol-2-yl)methyl]-2-methyl-1,1-dioxo-1,2,6-thiadiazinane-3,5-dicarboxamide]	< 50
Cc1nc(-c2ccc(F)cc2F)sc1CNC(=O)C1CC(C(=O)Nc2ccc(F)c(Cl)c2)N(C)S(=O)(=O)N1 (stereo not shown) [Compound 1083]	< 50
CN1C(C(=O)Nc2ccc(F)c(Cl)c2)CC(C(=O)NC2CCCc3nc(Br)sc32)NS1(=O)=O (stereo not shown) [Compound 978]	< 50

From patent US20230075856A1, “CYCLIC SULFAMIDE COMPOUNDS FOR TREATMENT OF HBV” (Assembly Biosciences, Inc., priority 2018, published 2023)
